{"source": "paper PMC7187626", "about": "(Antimicrobial Agents and Chemotherapy, 2019)", "key": {"[1]": {"assay": "Noncompartmental pharmacokinetic analysis of plasma concentrations after single oral dose of artefenomel and DSM265 in combination", "format": "in vivo, human", "details": "for Cmax / AUC(0-t) / AUC(0-inf) / Vd/F / Tmax / half-life: human, plasma", "protocol": "Plasma samples were analyzed by liquid chromatography-tandem mass spectrometry (HPLC-MS/MS) as previously described ([2], [4]). The PK parameters determined using noncompartmental analysis were the maximum plasma concentration (Cmax), the time point when Cmax was reached (tmax), the area under the concentration-time curve up to last time point measure (AUC0–last), the area under the concentration-time curve extrapolated to infinity (AUC0–∞), the elimination half-life (t1/2), the apparent clearance (CL/F), and the apparent volume of distribution associated with the terminal elimination phase, where F is bioavailability (Vz/F). The PD variables of interest in this study were the parasite reduction ratio (PRR) and parasite clearance half-life. These provide an estimate of the efficacy of an antimalarial treatment; with the former being the ratio of the parasite density decrease over a 48-h period (expressed as the log10 transformed cohort-specific PRR48 [log10 PRR48]). Noncompartmental PK analysis was performed using PKanalix (version 2019R1, Lixoft SAS, Abtony, France). The area under the concentration-time curve was determined using the linear log trapezoidal method in which linear calculation was used before maximum concentration (Cmax) and logarithmic formula for after Cmax. The slope of the terminal elimination phase (λz) was estimated via a linear regression between log concentrations and time. All parameters were summarized using geometric mean or median and range."}, "[2]": {"system": "P. falciparum blood-stage malaria parasites", "details": "monotherapy, cited from earlier work"}, "[3]": {"details": "oral, cohort 1 (n = 8), 200 mg artefenomel plus 100 mg DSM265, plasma, read-out: Cmax, range"}, "[4]": {"details": "oral, cohort 1 (n = 8), 200 mg artefenomel plus 100 mg DSM265, read-out: AUC0–last, geometric mean"}, "[5]": {"details": "oral, cohort 1 (n = 8), 200 mg artefenomel plus 100 mg DSM265, read-out: AUC0–last, range"}, "[6]": {"details": "oral, cohort 1 (n = 8), 200 mg artefenomel plus 100 mg DSM265, read-out: AUC0–∞, geometric mean"}, "[7]": {"details": "oral, cohort 1 (n = 8), 200 mg artefenomel plus 100 mg DSM265, read-out: AUC0–∞, range"}, "[8]": {"details": "oral, cohort 1 (n = 8), 200 mg artefenomel plus 100 mg DSM265, read-out: Vz/F (apparent volume of distribution, terminal phase), geometric mean"}, "[9]": {"details": "oral, cohort 1 (n = 8), 200 mg artefenomel plus 100 mg DSM265, read-out: Vz/F, range"}, "[10]": {"details": "oral, cohort 1 (n = 8), 200 mg artefenomel plus 100 mg DSM265, read-out: tmax, median"}, "[11]": {"details": "oral, cohort 1 (n = 8), 200 mg artefenomel plus 100 mg DSM265, read-out: tmax, range"}, "[12]": {"details": "oral, cohort 2 (n = 5), 200 mg artefenomel plus 50 mg DSM265, plasma, read-out: Cmax, range"}, "[13]": {"details": "oral, cohort 2 (n = 5), 200 mg artefenomel plus 50 mg DSM265, read-out: AUC0–last, geometric mean"}, "[14]": {"details": "oral, cohort 2 (n = 5), 200 mg artefenomel plus 50 mg DSM265, read-out: AUC0–last, range"}, "[15]": {"details": "oral, cohort 2 (n = 5), 200 mg artefenomel plus 50 mg DSM265, read-out: AUC0–∞, geometric mean"}, "[16]": {"details": "oral, cohort 2 (n = 5), 200 mg artefenomel plus 50 mg DSM265, read-out: AUC0–∞, range"}, "[17]": {"details": "oral, cohort 2 (n = 5), 200 mg artefenomel plus 50 mg DSM265, read-out: Vz/F (apparent volume of distribution, terminal phase), geometric mean"}, "[18]": {"details": "oral, cohort 2 (n = 5), 200 mg artefenomel plus 50 mg DSM265, read-out: Vz/F, range"}, "[19]": {"details": "oral, cohort 2 (n = 5), 200 mg artefenomel plus 50 mg DSM265, read-out: tmax, median"}, "[20]": {"details": "oral, cohort 2 (n = 5), 200 mg artefenomel plus 50 mg DSM265, read-out: tmax, range"}, "[21]": {"details": "po, cohort 1 (n = 8), single oral dose 200 mg artefenomel plus 100 mg DSM265, plasma, read-out: Cmax, geometric mean"}, "[22]": {"details": "po, cohort 2 (n = 5), single oral dose 200 mg artefenomel plus 50 mg DSM265, plasma, read-out: Cmax, geometric mean"}, "[23]": {"details": "cohort 1 (n = 8), 200 mg artefenomel plus 100 mg DSM265"}, "[24]": {"details": "cohort 2 (n = 5), 200 mg artefenomel plus 50 mg DSM265"}}, "note": "Like-named read-outs stand apart in the source and are kept apart here."}
{"compound": "c1cc([C@H]2CC[C@]3(CC2)OO[C@]2(O3)C3CC4CC(C3)CC2C4)ccc1OCCN1CCOCC1", "note": "[Artefenomel]", "values": [{"measurement": "Cmax", "setting": "[1]; [3]", "value": "150 to 597", "unit": "ng/mL"}, {"measurement": "AUC(0-t)", "setting": "[1]; [4]", "value": 3.01, "unit": "µg·h/mL"}, {"measurement": "AUC(0-t)", "setting": "[1]; [5]", "value": "1.11 to 4.96", "unit": "µg·h/mL"}, {"measurement": "AUC(0-inf)", "setting": "[1]; [6]", "value": 3.08, "unit": "µg·h/mL"}, {"measurement": "AUC(0-inf)", "setting": "[1]; [7]", "value": "1.11 to 5.09", "unit": "µg·h/mL"}, {"measurement": "Vd/F", "setting": "[1]; [8]", "value": 8900, "unit": "L"}, {"measurement": "Vd/F", "setting": "[1]; [9]", "value": "4810 to 16000", "unit": "L"}, {"measurement": "Tmax", "setting": "[1]; [10]", "value": 3, "unit": "h"}, {"measurement": "Tmax", "setting": "[1]; [11]", "value": "2 to 5", "unit": "h"}, {"measurement": "Cmax", "setting": "[1]; [12]", "value": "307 to 522", "unit": "ng/mL"}, {"measurement": "AUC(0-t)", "setting": "[1]; [13]", "value": 3.25, "unit": "µg·h/mL"}, {"measurement": "AUC(0-t)", "setting": "[1]; [14]", "value": "2.66 to 5.7", "unit": "µg·h/mL"}, {"measurement": "AUC(0-inf)", "setting": "[1]; [15]", "value": 3.32, "unit": "µg·h/mL"}, {"measurement": "AUC(0-inf)", "setting": "[1]; [16]", "value": "2.68 to 5.91", "unit": "µg·h/mL"}, {"measurement": "Vd/F", "setting": "[1]; [17]", "value": 7990, "unit": "L"}, {"measurement": "Vd/F", "setting": "[1]; [18]", "value": "4590 to 14300", "unit": "L"}, {"measurement": "Tmax", "setting": "[1]; [19]", "value": 5, "unit": "h"}, {"measurement": "Tmax", "setting": "[1]; [20]", "value": "1 to 6", "unit": "h"}, {"measurement": "Cmax", "setting": "[1]; [21]", "value": 372, "unit": "ng/mL"}, {"measurement": "Cmax", "setting": "[1]; [22]", "value": 412, "unit": "ng/mL"}, {"measurement": "recrudescence", "setting": "[2]; single dose 200 mg", "value": "recrudescence occurred in all subjects"}, {"measurement": "recrudescence, subjects", "setting": "[2]; single dose 500 mg", "value": 50, "unit": "%"}]}
{"compound": "Cc1cc(Nc2ccc(S(F)(F)(F)(F)F)cc2)n2nc(C(C)(F)F)nc2n1", "note": "[DSM265]", "values": [{"measurement": "CL/F (apparent clearance), geometric mean", "setting": "[1]; [23]", "value": 0.19, "unit": "L/h"}, {"measurement": "CL/F, range", "setting": "[1]; [23]", "value": "0.16 to 0.28", "unit": "L/h"}, {"measurement": "CL/F (apparent clearance), geometric mean", "setting": "[1]; [24]", "value": 0.18, "unit": "L/h"}, {"measurement": "CL/F, range", "setting": "[1]; [24]", "value": "0.16 to 0.21", "unit": "L/h"}, {"measurement": "Cmax", "setting": "[1]; [3]", "value": "4150 to 6880", "unit": "ng/mL"}, {"measurement": "AUC(0-t)", "setting": "[1]; [4]", "value": 434, "unit": "µg·h/mL"}, {"measurement": "AUC(0-t)", "setting": "[1]; [5]", "value": "329 to 502", "unit": "µg·h/mL"}, {"measurement": "AUC(0-inf)", "setting": "[1]; [6]", "value": 514, "unit": "µg·h/mL"}, {"measurement": "AUC(0-inf)", "setting": "[1]; [7]", "value": "360 to 634", "unit": "µg·h/mL"}, {"measurement": "Vd/F", "setting": "[1]; [8]", "value": 28, "unit": "L"}, {"measurement": "Vd/F", "setting": "[1]; [9]", "value": "22 to 42", "unit": "L"}, {"measurement": "half-life", "setting": "[1]; oral, cohort 1 (n = 8), 200 mg artefenomel plus 100 mg DSM265, read-out: t1/2 (elimination half-life), geometric mean (converted)", "value": 100, "unit": "h"}, {"measurement": "half-life", "setting": "[1]; oral, cohort 1 (n = 8), 200 mg artefenomel plus 100 mg DSM265, read-out: t1/2, range", "value": "76 to 185", "unit": "h"}, {"measurement": "Tmax", "setting": "[1]; [10]", "value": 2, "unit": "h"}, {"measurement": "Tmax", "setting": "[1]; [11]", "value": "1 to 3", "unit": "h"}, {"measurement": "Cmax", "setting": "[1]; [12]", "value": "2150 to 4340", "unit": "ng/mL"}, {"measurement": "AUC(0-t)", "setting": "[1]; [13]", "value": 232, "unit": "µg·h/mL"}, {"measurement": "AUC(0-t)", "setting": "[1]; [14]", "value": "209 to 281", "unit": "µg·h/mL"}, {"measurement": "AUC(0-inf)", "setting": "[1]; [15]", "value": 271, "unit": "µg·h/mL"}, {"measurement": "AUC(0-inf)", "setting": "[1]; [16]", "value": "240 to 309", "unit": "µg·h/mL"}, {"measurement": "Vd/F", "setting": "[1]; [17]", "value": 26, "unit": "L"}, {"measurement": "Vd/F", "setting": "[1]; [18]", "value": "19 to 34", "unit": "L"}, {"measurement": "half-life", "setting": "[1]; oral, cohort 2 (n = 5), 200 mg artefenomel plus 50 mg DSM265, read-out: t1/2 (elimination half-life), geometric mean (converted)", "value": 97, "unit": "h"}, {"measurement": "half-life", "setting": "[1]; oral, cohort 2 (n = 5), 200 mg artefenomel plus 50 mg DSM265, read-out: t1/2, range", "value": "75 to 134", "unit": "h"}, {"measurement": "Tmax", "setting": "[1]; [19]", "value": 2, "unit": "h"}, {"measurement": "Tmax", "setting": "[1]; [20]", "value": "1 to 2", "unit": "h"}, {"measurement": "Cmax", "setting": "[1]; [21]", "value": 5440, "unit": "ng/mL"}, {"measurement": "Cmax", "setting": "[1]; [22]", "value": 3580, "unit": "ng/mL"}, {"measurement": "parasite clearance half-life", "setting": "[2]; single dose 150 mg", "value": 9.4, "unit": "h"}, {"measurement": "recrudescence", "setting": "[2]; single dose 150 mg", "value": "recrudescence occurred in all subjects"}, {"measurement": "parasite clearance half-life", "setting": "[2]; single dose 400 mg", "value": 5.2, "unit": "h"}, {"measurement": "recrudescence", "setting": "[2]; single dose 400 mg", "value": "no recrudescence occurred"}]}
